Assay results from paper PMC4287973, “Tumor cell-specific inhibition of MYC function using small molecule inhibitors of the HUWE1 ubiquitin ligase” (EMBO Molecular Medicine, 2014).
Where two headings read alike, the source gives them in different places.

Assays:
[1] = tested on: Ls174T cells; assay: Crystal violet growth assay of control and partially HUWE1-depleted Ls174T cells (IC50 shift); format: cell-based; settings: Homo sapiens, 120 h, crystal violet after five days
Procedure: Partial shRNA-mediated depletion of HUWE1 led to a moderate, but highly significant reduction in IC50 value for growth inhibition by BI8622, arguing that growth inhibition is an on-target effect of the inhibitor (Supplementary Fig S6). […] Incubation with either compound retarded passage of Ls174T cells through all phases of the cell cycle, with the effect being strongest for G1. In contrast to colon carcinoma cells, HUWE1 is not required for proliferation of embryonic stem (ES) cells and deletion of HUWE1 instead delays the decrease of N-MYC levels that occurs upon removal of leukemia inhibitory factor (LIF) from the medium (Zhao et al, [2008]). […] Furthermore, inhibition of HUWE1 in crypt cultures of normal intestinal epithelial cells had no effect on expression of MYC target genes (Fig4G).
HCT116, HEK293T, HeLa, HT29, ES, Phoenix, and U2OS cells were cultivated in DMEM (Sigma). Ls174T and SW480 cells were grown in RPMI 1640 (Sigma). All media were supplemented with 10% FBS (Biochrom AG) and 1% penicillin/streptomycin (Sigma). Medium for ES cells contained 15% FBS, 1% NEAA (Gibco), 6 μg/ml LIF, and 0.05 mM β-mercaptoethanol (Sigma). […] Quantification of crystal violet staining was performed by extracting dye with 10% acetic acid and measuring absorbance at 590 nm. IC50 values were calculated using the four parameter logistic equation model. […]
C. Quantification of the staining. […]

[2] = tested on: MYC target gene sets in Ls174T cells; assay: Microarray gene expression and GSEA in Ls174T cells; format: cell-based, human; settings: for number of genes downregulated (microarray) / number of genes upregulated (microarray): Ls174T, 24 h, cut-off fold change 2, P < 0.01
Procedure: Finally, shRNA-mediated depletion of p53 (Supplementary Fig S8, upper panel) had no effect on regulation of MYC target genes by either compound (Supplementary Fig S8, lower panel). Collectively, the data establish that these compounds block MYC-dependent transcriptional activation via inhibition of HUWE1 in colon cancer cells.
Control or HUWE1-depleted Ls174T cells were treated with HUWE1 inhibitors or DMSO as control for 24 h. Expression of different MYC-induced target genes was analyzed by RQ–PCR. Error bars show SD of triplicate technical assays from one representative experiment (n = 5). • Time-dependent expression of the differentiation marker MUC2 upon HUWE1 inhibition. Ls174T cells were treated with HUWE1 inhibitors for the indicated times. Error bars show SD of triplicate technical assays from one representative experiment (n = 3). • Gene set enrichment analysis (GSEA) of gene expression changes upon HUWE1 inhibition. Ls174T cells were treated for 24 h with either HUWE1 inhibitor or DMSO as control. RNA was isolated and subjected to a microarray and gene set enrichment analysis. […] P-values were calculated using a test for hypergeometric distribution. • Heat map comparing gene expression after HUWE1 depletion to treatment with HUWE1 inhibitors. The left panel summarizes expression of all genes (n = 10,452) ordered according to their expression after HUWE1 knockdown. […] MYC binding data were taken from HeLa cells. […] The upper panels display examples of MYC-activated gene sets and their response to inhibition of HUWE1.
Microarray analyses were performed on a 44K Whole Human Genome Array (G4845A 026652, Agilent), and raw data were generated with the Feature Extraction software v10.1.1.1 (Agilent).
The P-value was calculated using a one-sample two-tailed Student's t-test with μ = 0. Gene set enrichment analysis (GSEA) was performed using default settings and the C2 gene sets from the MSigDB (www.broadinstitute.org/gsea/msigdb). To compare two GSEA, the normalized enrichment scores (NES) for all repressed gene sets were plotted and gene sets containing > 25% ribosomal protein genes were highlighted. Data are presented as means with standard deviation unless defined differently in the figure legends. P-values were calculated using Student's t-test.

Cc1c(C(=O)Nc2ccc(CN)cc2)ncnc1N1CCC(C#N)(c2ccccc2)CC1 [BI8622]
IC50 ([1]; control Ls174T cells, read-out: IC50 growth inhibition, ctr cells): 8.1 µM | IC50 ([1]; partially HUWE1-depleted Ls174T cells, read-out: IC50 growth inhibition, shHUWE1 cells): 6.5 µM | number of genes downregulated (microarray) [2]: 2,295 | number of genes upregulated (microarray) [2]: 2,267 | effect on expression of sets of MYC-activated target genes in HUWE1-depleted cells ([2]; genome-wide analysis, HUWE1-depleted Ls174T cells): no statistically significant effect

NCc1cccc(CNc2ncnc3c(N4CCN(Cc5ccccc5)CC4)ncnc23)c1 [BI8626]
number of genes downregulated (microarray) [2]: 2,923 | number of genes upregulated (microarray) [2]: 2,796
